Experimental data taken from patent US20120230914A1, “LABELING COMPOUND FOR PET” (RIKEN, priority 2009, published 2012).

Columns and labels:
[1] = target: T1, aromatase (Macaca mulatta, UniProt A0A1D5QZ23); assay: PET measurement (binding potential images and SUV in brain regions); conditions: for specific binding in amygdala (binding potential images): male Rhesus macaques, i.v. 33 MBq/kg, 90 min scan, cerebellum as reference region; for binding potential (difference among the compounds): Rhesus macaques, relative to Compounds (10), (22), (33), (39)
T1 sequence (A0A1D5QZ23 1-503): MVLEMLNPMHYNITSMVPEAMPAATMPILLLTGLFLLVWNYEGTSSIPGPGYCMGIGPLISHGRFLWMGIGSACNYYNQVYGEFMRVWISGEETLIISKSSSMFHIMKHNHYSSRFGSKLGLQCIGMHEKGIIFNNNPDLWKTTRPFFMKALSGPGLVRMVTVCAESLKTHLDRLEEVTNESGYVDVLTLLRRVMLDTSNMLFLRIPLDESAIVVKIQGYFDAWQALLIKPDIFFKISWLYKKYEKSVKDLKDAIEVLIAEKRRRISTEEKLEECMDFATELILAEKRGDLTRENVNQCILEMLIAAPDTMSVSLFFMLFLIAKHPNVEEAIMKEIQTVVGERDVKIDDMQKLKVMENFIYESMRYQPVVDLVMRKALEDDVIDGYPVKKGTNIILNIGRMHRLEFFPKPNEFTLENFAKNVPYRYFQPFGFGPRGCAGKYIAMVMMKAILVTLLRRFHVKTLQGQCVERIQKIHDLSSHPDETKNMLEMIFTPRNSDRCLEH
Procedure: (§1) (i) Male Rhesus macaques were subjected to PET measurement. Specifically, Rhesus macaques were put under sedation with ketalar (10 mg/kg), and intravenous catheters for RI administration were attached to their legs. Thereafter, the Rhesus macaques were anesthetized using propofol (10 mg/kg/h), and were immobilized in a PET scanner.
(§2) After reconstructing images, binding potential (BP) images with cerebellum as a reference region were constructed. The binding potential used herein indicates a value obtained by dividing an association rate constant by a dissociation rate constant.
(§3) SUV is a value obtained by dividing radioactivity density per 1 ml of tissue by radioactivity density per 1 g of body weight, i.e. SUV=radioactivity density per 1 ml of tissue/radioactivity density per 1 g of body weight.

[2] = tested on: aromatase; assay: as above; conditions: for temporal change in SUV (standardized uptake value) in the latter part of scanning: Rhesus macaques, cerebellum, amygdala, hypothalamus, nucleus accumbens
Procedure: as §1, §2, §3

[3] = Reuptake of labeled metabolite: HPLC of blood and brain extracts after tail vein injection; format: in vivo; conditions: male rats, brain sampled 5, 10 and 20 min after injection
Procedure: 5, 10 and 20 min after the injection, bloods were sampled from aorta adbominalis and then the brains were taken out and homogenized. Acetonitrile was added to the bloods and homogenated brains and the resultants were subjected to centrifugation, and extracts were subjected to HPLC in order to measure labeled metabolites.
Data for “Monkey” shown in FIG. 8 was obtained by sampling vein blood along with PET imaging, centrifuging the sampled vein blood, adding acetonitrile to the blood plasma and centrifuging the blood plasma, and subjecting the extract to HPLC to measure parent compound in the blood plasma.

[4] = target: T1, aromatase; assay: Replacement test with non-radiolabeled vorozole (PET binding potential); format: in vivo; set-up: allows quantifying aromatase in the brain with higher accuracy; from tissue; host or cells: brain of living male Rhesus macaques (amygdala, hypothalamus, nucleus accumbens); conditions: Rhesus macaques; after non-radiolabeled VOR 100 μg/kg; compared with VOR
Procedure: 5 min before administration of the Compound (10), non-radiolabeled vorozole (VOR) (100 μg/kg) was administered, and binding potential (BP) of Rhesus macaques were observed.

[5] = target: T2, aromatase (Rattus norvegicus, UniProt P22443); assay: In vitro binding test (ligand saturation, Scatchard plot analysis); set-up: species or system rats
T2 construct: from tissue; host or cells: rat ovary homogenate (female rats)
T2 sequence (P22443 1-508): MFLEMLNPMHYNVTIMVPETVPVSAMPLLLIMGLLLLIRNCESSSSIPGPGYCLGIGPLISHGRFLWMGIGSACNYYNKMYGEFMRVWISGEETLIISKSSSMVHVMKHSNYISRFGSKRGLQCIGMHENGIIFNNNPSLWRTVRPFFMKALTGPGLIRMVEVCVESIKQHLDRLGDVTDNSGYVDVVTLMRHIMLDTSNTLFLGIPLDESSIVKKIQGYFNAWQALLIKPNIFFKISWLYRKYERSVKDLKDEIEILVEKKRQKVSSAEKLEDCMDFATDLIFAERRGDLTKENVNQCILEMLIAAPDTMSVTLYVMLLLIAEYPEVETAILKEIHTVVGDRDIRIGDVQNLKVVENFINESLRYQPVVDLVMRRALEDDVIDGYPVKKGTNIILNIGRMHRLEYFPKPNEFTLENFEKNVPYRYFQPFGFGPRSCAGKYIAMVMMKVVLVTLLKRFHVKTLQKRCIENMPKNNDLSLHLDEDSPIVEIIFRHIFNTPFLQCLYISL
Procedure: Specifically, female rats were anesthetized with diethyl ether, and 0.01 M phosphate buffered saline (PBS, pH 7.4) was perfused via hearts. Ovaries of the rats were removed immediately and homogenized in 1 mL of a 0.32 M sucrose solution.
After filtration, counting was performed by a γ counter, and the average of KD was calculated by Scatchard plot analysis.

reuptake of labeled metabolite into the brain [3]	nonspecific binding of the labeled compound to cerebral cortex etc. ([2]; male Rhesus macaques, compared to conventional [11C]vorozole)	Kd ([5]; homogenized rat ovaries, room temperature, 30 min, nonspecific binding with 1 μM non-radiolabeled VOR, read-out: dissociation constant (KD))	SMILES	specific binding in amygdala (binding potential images) [1]	temporal change in SUV (standardized uptake value) in the latter part of scanning [2]	binding potential (difference among the compounds) [1]	amount of replaced binding (considered nonspecific binding) [4]	affinity relative to VOR ([5]; from KD values)
			[11CH3]c1ccc(CN(c2ccc([N+](=O)[O-])cc2)n2cnnc2)cc1 [Compound (33), 4-{(4-[^11C]Methylbenzyl)(4H-1,2,4-triazol-4-yl)amino}nitrobenzene]	specific binding was observed in amygdala	decreases as time passes			
			[11CH3]c1cccc(CN(c2ccc(C#N)cc2)n2cnnc2)c1 [Compound (22), 4-{(3-[^11C]Methylbenzyl)(4H-1,2,4-triazol-4-yl)amino}benzonitrile]	specific binding was observed in amygdala	decreases as time passes	relatively low binding potential		
such reuptake was not observed	decreased	0.3 nM	[11CH3]c1ccc(CN(c2ccc(C#N)cc2)n2cnnc2)cc1 [Compound (10), 4-{(4-[^11C]Methylbenzyl)(4H-1,2,4-triazol-4-yl)amino}benzonitrile]	specific binding was observed in amygdala	decreases as time passes		smaller amount of replaced binding than the case of VOR	approximately twice higher affinity than VOR
			[11CH3]c1ccc(CN(c2ccc(C#N)cc2)n2cncn2)cc1 [Compound (39), 4-{(4-[^11C]Methylbenzyl)(1H-1,2,4-triazol-1-yl)amino}benzonitrile]	specific binding was observed in amygdala	decreases as time passes	relatively high binding potential		
